Test results: ChEMBL document CHEMBL1156075, “5,5'- and 6,6'-dialkyl-5,6-dihydro-1H-pyridin-2-ones as potent inhibitors of HCV NS5B polymerase” (Bioorg Med Chem Lett, 2009)

Assays:
in vitro [1] = conditions: human, Huh7/C24 cells
Description: Cytotoxicity against human Huh7/C24 cells after 72 hrs by bDNA assay

in vitro [2] = conditions: human, liver microsomes
Hepatitis C virus = test: microbe, parasite or virus in culture; conditions: genotype 1b, Huh-7, 72 h
in vitro [3] = conditions: human, liver microsomes; remark: listed apart in the source
in vitro [4] = conditions: human, liver microsomes; remark: listed apart in the source
[5] = Apparent permeability from apical to basolateral side in human Caco-2 cells at 10 uM after 3 hrs; type: ADME, cell-based
[6] = Oral bioavailability in cynomolgus monkey at 1 mg/kg, po; type: ADME, organism-based, Macaca fascicularis; conditions: in vivo
[7] = Clearance in cynomolgus monkey at 1 […]; type: ADME, organism-based, Macaca fascicularis; set-up: dose 1 mg/kg; conditions: in vivo
[8] = Clearance in cynomolgus monkey at 1 mg/kg, iv; type: ADME, organism-based, Macaca fascicularis; set-up: dose 1 mg/kg, route intravenous; conditions: in vivo
Cynomolgus monkey [9] = conditions: in vivo, po, 1 mg/kg
Cynomolgus monkey [10] = conditions: in vivo, iv, 1 mg/kg
in vitro [11] = conditions: cynomolgus monkey, liver microsomes

half-life at 5 µM (in vitro [2]) | EC50 (Hepatitis C virus) | SMILES | CC50 at 72 h (in vitro [1]) | also measured
5.7 min | 0.77 µM | CC(C)CC[C@@]1(C)CN(Cc2ccc(F)cc2)C(=O)C(C2=NS(=O)(=O)c3cc(NS(C)(=O)=O)ccc3N2)=C1O | > 33 µM | 
 | 0.31 µM | CC(C)(C)CC[C@]1(C)CN(C2CCCC2)C(=O)C(C2=NS(=O)(=O)c3cc(NS(C)(=O)=O)ccc3N2)=C1O | > 10 µM | half-life at 5 µM (in vitro [3]): > 60 min; half-life at 5 µM (in vitro [4]): 1.6 min
> 60 min | 0.97 µM | CC[C@@H]1CC(O)=C(C2=NS(=O)(=O)c3cc(NS(C)(=O)=O)ccc3N2)C(=O)N1Cc1ccc(F)cc1 |  | 
> 3.6 min | 0.025 µM | CC(C)CC[C@]1(C)CN(C2CCCCC2)C(=O)C(C2=NS(=O)(=O)c3cc(NS(C)(=O)=O)ccc3N2)=C1O | > 33 µM | 
> 60 min | 0.55 µM | CS(=O)(=O)Nc1ccc2c(c1)S(=O)(=O)N=C(C1=C(O)C3(CC3)CN(Cc3ccc(F)cc3)C1=O)N2 | > 1 µM | 
 | 0.17 µM | C[C@@]1(CCC2CC2)CN(C2CCCC2)C(=O)C(C2=NS(=O)(=O)c3cc(NS(C)(=O)=O)ccc3N2)=C1O | > 10 µM | half-life at 5 µM (in vitro [3]): > 60 min; half-life at 5 µM (in vitro [4]): 3.7 min
28 min | 2.1 µM | CS(=O)(=O)Nc1ccc2c(c1)S(=O)(=O)N=C(C1=C(O)C3(CCCC3)CN(Cc3ccc(F)cc3)C1=O)N2 | > 33 µM | 
> 2.3 min |  | CC(C)CC[C@]1(C)CN(c2ccccc2)C(=O)C(C2=NS(=O)(=O)c3cc(NS(C)(=O)=O)ccc3N2)=C1O |  | 
 | 8.5 µM | CCC[C@]1(C)CN(C2CCC2)C(=O)C(C2=NS(=O)(=O)c3cc(NS(C)(=O)=O)ccc3N2)=C1O |  | half-life at 5 µM (in vitro [3]): > 60 min; half-life at 5 µM (in vitro [4]): 2.8 min
> 60 min | 0.81 µM | CC(C)(C)[C@H]1CC(O)=C(C2=NS(=O)(=O)c3cc(NS(C)(=O)=O)ccc3N2)C(=O)N1Cc1ccc(F)cc1 | > 10 µM | 
 | 0.15 µM | C[C@@]1(CCC2CC2)CN(C2CCC2)C(=O)C(C2=NS(=O)(=O)c3cc(NS(C)(=O)=O)ccc3N2)=C1O | > 1 µM | half-life at 5 µM (in vitro [3]): > 60 min; half-life at 5 µM (in vitro [4]): 5.1 min
6.9 min | 0.67 µM | CC(C)=CC[C@H]1CN(Cc2ccc(F)cc2)C(=O)C(C2=NS(=O)(=O)c3cc(NS(C)(=O)=O)ccc3N2)=C1O | > 33 µM | 
5.5 min | 0.097 µM | CC(C)CC[C@]1(C)CN(C2CC2)C(=O)C(C2=NS(=O)(=O)c3cc(NS(C)(=O)=O)ccc3N2)=C1O | > 33 µM | 
35 min | 0.24 µM | CC(C)/C=C/C[C@@H]1CN(C2CCCC2)C(O)C(C2=NS(=O)(=O)c3cc(NS(C)(=O)=O)ccc3N2)=C1O (stereo not given in full) | > 33 µM | 
 | 1.4 µM | CC(C)(C)CC[C@]1(C)CN(C2CCCCC2)C(=O)C(C2=NS(=O)(=O)c3cc(NS(C)(=O)=O)ccc3N2)=C1O | > 10 µM | half-life at 5 µM (in vitro [3]): > 60 min; half-life at 5 µM (in vitro [4]): 1.4 min
 | 0.3 µM | CC[C@@]1(CCC(C)C)CN(C2CCCC2)C(=O)C(C2=NS(=O)(=O)c3cc(NS(C)(=O)=O)ccc3N2)=C1O | > 1 µM | half-life at 5 µM (in vitro [3]): > 60 min; half-life at 5 µM (in vitro [4]): 3 min
> 60 min | 0.083 µM | CC[C@H]1CC(O)=C(C2=Nc3ccc(NS(C)(=O)=O)cc3S(=O)(=O)N2)C(=O)N1Cc1ccc(F)cc1 | > 1 µM | 
2.2 min | 0.014 µM | CC(C)CC[C@]1(C)CN(C2CCC2)C(=O)C(C2=NS(=O)(=O)c3cc(NS(C)(=O)=O)ccc3N2)=C1O | > 10 µM | Papp A→B at 3 h, 10 µM [5]: 29 nm/s; bioavailability [6]: 16%; CL/F [7]: 0.282 L/h/kg; clearance [8]: 0.282 L/h/kg; AUC (Cynomolgus monkey [9]): 0.556 µg·h/mL; AUC (Cynomolgus monkey [10]): 3.56 µg·h/mL; half-life at 5 µM (in vitro [11]): 55 min
> 60 min | 0.66 µM | CS(=O)(=O)Nc1ccc2c(c1)S(=O)(=O)N=C(C1=C(O)C[C@H](c3ccccc3)N(Cc3ccc(F)cc3)C1=O)N2 | > 10 µM | 
> 60 min | 3.9 µM | CS(=O)(=O)Nc1ccc2c(c1)S(=O)(=O)N=C(C1=C(O)CCN(Cc3ccc(F)cc3)C1=O)N2 | > 33 µM | 
> 60 min | 0.84 µM | CS(=O)(=O)Nc1ccc2c(c1)S(=O)(=O)N=C(C1=C(O)CC3(CCCC3)N(Cc3ccc(F)cc3)C1=O)N2 | > 33 µM | 

half-life at 5 µM (in vitro [2]) | EC50 (Hepatitis C virus) | SMILES | CC50 at 72 h (in vitro [1]) | also measured
> 60 min | 0.77 µM | CS(=O)(=O)Nc1ccc2c(c1)S(=O)(=O)N=C(C1=C(O)C3(CCC3)CN(Cc3ccc(F)cc3)C1=O)N2 | > 33 µM | 
> 60 min | 0.16 µM | CC[C@@]1(C)CN(Cc2ccc(F)cc2)C(=O)C(C2=NS(=O)(=O)c3cc(NS(C)(=O)=O)ccc3N2)=C1O | > 1 µM | 
> 60 min | 0.045 µM | CC(C)[C@H]1CC(O)=C(C2=NS(=O)(=O)c3cc(NS(C)(=O)=O)ccc3N2)C(=O)N1Cc1ccc(F)cc1 | > 1 µM | 
10 min | 0.33 µM | CC(C)(C)CC[C@]1(C)CN(C2CC2)C(=O)C(C2=NS(=O)(=O)c3cc(NS(C)(=O)=O)ccc3N2)=C1O | > 10 µM | 
> 60 min | 0.2 µM | C[C@]1(CC2CC2)CN(Cc2ccc(F)cc2)C(=O)C(C2=NS(=O)(=O)c3cc(NS(C)(=O)=O)ccc3N2)=C1O | > 33 µM | 
> 60 min | 0.52 µM | CS(=O)(=O)Nc1ccc2c(c1)S(=O)(=O)N=C(C1=C(O)C[C@@H](c3ccc(F)cc3)N(Cc3ccc(F)cc3)C1=O)N2 | > 10 µM | 
59 min | 0.31 µM | CCC(CC)[C@@H]1CC(O)=C(C2=NS(=O)(=O)c3cc(NS(C)(=O)=O)ccc3N2)C(=O)N1Cc1ccc(F)cc1 | > 1 µM | 
> 60 min | 1.3 µM | CC1(C)CN(Cc2ccc(F)cc2)C(=O)C(C2=NS(=O)(=O)c3cc(NS(C)(=O)=O)ccc3N2)=C1O | > 33 µM | 
6.5 min | 0.49 µM | CC(C)CC[C@H]1CN(Cc2ccc(F)cc2)C(=O)C(C2=NS(=O)(=O)c3cc(NS(C)(=O)=O)ccc3N2)=C1O | > 33 µM | 
 | 0.46 µM | CC(C)(C)CC[C@]1(C)CN(C2CCC2)C(=O)C(C2=NS(=O)(=O)c3cc(NS(C)(=O)=O)ccc3N2)=C1O | > 1 µM | half-life at 5 µM (in vitro [3]): > 60 min; half-life at 5 µM (in vitro [4]): 3 min
43 min | 2.9 µM | C#CC[C@]1(C)CN(C2CCCC2)C(=O)C(C2=NS(=O)(=O)c3cc(NS(C)(=O)=O)ccc3N2)=C1O | > 33 µM | 
> 60 min | 3.6 µM | CS(=O)(=O)Nc1ccc2c(c1)S(=O)(=O)N=C(C1=C(O)[C@@H](Cc3ccc(F)cc3)CN(Cc3ccc(F)cc3)C1=O)N2 | > 33 µM | 
 | > 10 µM | CCCC[C@]1(C)CN(C2CCC2)C(=O)C(C2=NS(=O)(=O)c3cc(NS(C)(=O)=O)ccc3N2)=C1O |  | half-life at 5 µM (in vitro [3]): > 60 min; half-life at 5 µM (in vitro [4]): 3 min
 | 14 µM | C[C@@]1(Cc2ccc(F)cc2)CN(C2CCCC2)C(=O)C(C2=NS(=O)(=O)c3cc(NS(C)(=O)=O)ccc3N2)=C1O | > 33 µM | 
> 60 min | 2.9 µM | CC(C)C[C@@H]1CC(O)=C(C2=NS(=O)(=O)c3cc(NS(C)(=O)=O)ccc3N2)C(=O)N1Cc1ccc(F)cc1 |  | 
32 min | 0.043 µM | CC(C)CC[C@@H]1CN(C2CCCC2)C(=O)C(C2=NS(=O)(=O)c3cc(NS(C)(=O)=O)ccc3N2)=C1O | > 33 µM | 
> 2.6 min |  | CC(C)CC[C@]1(C)CN(C2CCCC2)C(=O)C(C2=NS(=O)(=O)c3cc(NS(C)(=O)=O)ccc3N2)=C1O | > 33 µM | 
 | 2.1 µM | C[C@@]1(Cc2ccc(F)cc2)CN(C2CC2)C(=O)C(C2=NS(=O)(=O)c3cc(NS(C)(=O)=O)ccc3N2)=C1O | > 33 µM | 
> 60 min | 0.016 µM | CS(=O)(=O)Nc1ccc2c(c1)S(=O)(=O)N=C(C1=C(O)[C@@H]3CCC[C@@H]3N(Cc3ccc(F)cc3)C1=O)N2 | > 100 µM | Papp A→B at 3 h, 10 µM [5]: 16 nm/s; bioavailability [6]: 21%; CL/F [7]: 0.0378 L/h/kg; clearance [8]: 0.0378 L/h/kg; AUC (Cynomolgus monkey [9]): 6.04 µg·h/mL; AUC (Cynomolgus monkey [10]): 29.1 µg·h/mL; half-life at 5 µM (in vitro [11]): > 60 min
7.6 min | 5.5 µM | CC(C)CC[C@@H]1CC(O)=C(C2=NS(=O)(=O)c3cc(NS(C)(=O)=O)ccc3N2)C(=O)N1Cc1ccc(F)cc1 |  | 
